Experimental data from patent US10150760B2, “Compounds for use in preparing heterocyclic triazole agonists of the APJ receptor” (AMGEN INC., priority 2016, dated 2018).

Assays:
[1] = tested on: Male Lewis rats with heart failure induced by permanent ligation of the left descending coronary artery; test: Cardiac contractility in vivo in heart failure (MI) rat model; conditions: for cardiac contractility as measured by dP/dtmax (derivative of left ventricular pressure): heart failure rats, ejection fraction <35%, administered acutely for 30 min; for MI Rat Model dP/dtmax (%): in vivo, heart failure (MI) rat, acute administration for 30 min
Description: Evidence for Improvement in Cardiac Contractility In Vivo in Heart Failure Rat Model
Based on the ex vivo findings in isolated heart assay, APJ agonists were dosed in vivo to investigate the translation of cardiac contractility in in vivo settings. Male Lewis rats (Charles River, USA) at 2-3 months of age were used for the study. Heart failure was induced by permanent ligation of the left descending coronary artery which results in injury to the heart with an ejection fraction of <35%. APJ agonists were administered dose dependently acutely for a period of 30 min.

[2] = tested on: isolated perfused rat hearts; test: Ex vivo isolated perfused rat heart assay (Langendorff apparatus), load independent inotropic and lusitropic effects; set-up: species or system Sprague Dawley rat; conditions: for Isolated Heart Assay dP/dtmax (%) / Isolated Heart Assay dP/dtmin (%): ex vivo isolated perfused rat heart, percent change over vehicle; for Isolated Heart Assay dP/dtmax (%): contractility; for Isolated Heart Assay dP/dtmin (%): relaxation; for left ventricular dP/dtmax (load independent cardiac contractility) / left ventricular dP/dtmin (load independent cardiac relaxation, lusitropic effect): ex vivo naive Sprague Dawley rat hearts, Langendorff apparatus, compared with vehicle
In short: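 Hearts from naive Sprague Dawley rats were perfused retrograde via the aorta with oxygenated modified Krebs-Henseleit buffer on a Langendorff apparatus, with agonist infused at several concentrations. An LV balloon recorded dP/dtmax (contractility) and dP/dtmin (relaxation), expressed as percent change over vehicle.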

human APJ receptor = human APJ receptor (Homo sapiens (Human), UniProt P35414); test: [35S]GTPγS binding assay on membranes from CHO cells stably expressing human APJ receptor; format: biochemical; conditions: read-out: Activity hAPJ SPA EC50 IP
In short: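 Agonist-driven [35S]GTPγS (0.2 nM) binding was measured over 90 min at room temperature on human APJ-expressing CHO membranes with bead capture, in buffer containing 3 μM GDP, 200 mM NaCl and 5 mM MgCl2 (pH 7.5). Excess unlabelled GTPγS (100 μM) gave nonspecific signal; EC50 from non-linear fits.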

heart failure rats = test: Cardiac function with APJ small molecule agonists in the presence of ACE inhibitor captopril in heart failure rats in vivo; set-up: species or system rat; conditions: captopril alone, acute settings
Excerpt: The interaction between […] (ACE2) and Apelin biology is complicated. To investigate the interaction between the Apelin-APJ and ACE signaling pathways, we examined the improvement in cardiac function with APJ small molecule agonists in the presence of ACE inhibitor captopril in heart failure rats in vivo. […] However, in the presence of an APJ agonist, there was a shift in potency to the left with marked improvement in contractility and ejection fraction without changes in heart rate. These findings provide a new reference for the understanding of the regulation of ACE2 for the renin angiotensin aldosterone system (RAAS), independent of AT1R signaling and offer new potential drug targets for the treatment of diseases such as hypertension and heart failure. This work clearly establishes that combination of an agonist of the APJ receptor with an ARB such as losartan and/or with an ACE inhibitor such as captopril which may play an important role in providing greater efficacy in treating heart failure patients, for example in improving contractility and ejection fraction without changing the heart rate.

Sequence of human APJ receptor (P35414 whole entry): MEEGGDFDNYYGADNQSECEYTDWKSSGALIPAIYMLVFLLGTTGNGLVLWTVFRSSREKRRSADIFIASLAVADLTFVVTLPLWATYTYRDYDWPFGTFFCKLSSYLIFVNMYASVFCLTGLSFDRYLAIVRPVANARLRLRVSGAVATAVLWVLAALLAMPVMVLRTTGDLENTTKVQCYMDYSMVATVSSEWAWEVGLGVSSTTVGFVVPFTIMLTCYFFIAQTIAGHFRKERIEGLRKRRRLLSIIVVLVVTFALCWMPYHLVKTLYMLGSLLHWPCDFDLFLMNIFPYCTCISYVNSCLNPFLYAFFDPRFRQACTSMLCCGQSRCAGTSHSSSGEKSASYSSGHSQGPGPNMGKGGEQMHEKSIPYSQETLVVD

With `COc1cccc(OC)c1-n1c(NS(=O)(=O)[C@@H](C)[C@H](C)c2ncc(C)cn2)nnc1[C@H]1CCCO1` (single isomer, unassigned) [Example 49.0, (2S,3R)-N-(4-(2,6-dimethoxyphenyl)-5-((S)-tetrahydrofuran-2-yl)-4H-1,2,4-triazol-3-yl)-3-(5-methylpyrimidin-2-yl)butane-2-sulfonamide or (2S,3R)-N-(4-(2,6-dimethoxyphenyl)-5-((R)-tetrahydrofuran-2-yl)-4H-1,2,4-triazol-3-yl)-3-(5-methylpyrimidin-2-yl)butane-2-sulfonamide] the “cardiac contractility as measured by dP/dtmax (derivative of left ventricular pressure)” value [1] was “increase in cardiac contractility”, the “MI Rat Model dP/dtmax (%)” value [1] was 20.0% and the “Isolated Heart Assay dP/dtmax (%)” value [2] was 20%. The “Isolated Heart Assay dP/dtmin (%)” value [2] was 55%, the “left ventricular dP/dtmax (load independent cardiac contractility)” value [2] was “increases load independent cardiac contractility” and the “left ventricular dP/dtmin (load independent cardiac relaxation, lusitropic effect)” value [2] was “increases load independent cardiac relaxation”. For the same molecule, the EC50 (human APJ receptor) was 1.8 nM.
In the case of `COc1cccc(OC)c1-n1c(NS(=O)(=O)[C@@H](C)[C@H](C)c2ncc(Cl)cn2)nnc1[C@H]1CCOC1` (single isomer, unassigned) [Example 60.0, (2S,3R)-3-(5-chloropyrimidin-2-yl)-N-(4-(2,6-dimethoxyphenyl)-5-((R)-tetrahydrofuran-3-yl)-4H-1,2,4-triazol-3-yl)butane-2-sulfonamide or (2S,3R)-3-(5-chloropyrimidin-2-yl)-N-(4-(2,6-dimethoxyphenyl)-5-((S)-tetrahydrofuran-3-yl)-4H-1,2,4-triazol-3-yl)butane-2-sulfonamide], the “cardiac contractility as measured by dP/dtmax (derivative of left ventricular pressure)” value [1] is reported as “increase in cardiac contractility”, the “MI Rat Model dP/dtmax (%)” value [1] is reported as 20.0% and the “Isolated Heart Assay dP/dtmax (%)” value [2] is reported as 19.1%. For the same molecule, the “Isolated Heart Assay dP/dtmin (%)” value [2] was 18.3%, the “left ventricular dP/dtmax (load independent cardiac contractility)” value [2] was “increases load independent cardiac contractility” and the “left ventricular dP/dtmin (load independent cardiac relaxation, lusitropic effect)” value [2] was “increases load independent cardiac relaxation”. It also gave an EC50 (human APJ receptor) of 9.3 nM.
`C[C@H](CS)C(=O)N1CCC[C@H]1C(=O)O` [Captopril, captopril] was tested, and the “improvement in contractility or ejection fraction” value (heart failure rats) was “does not show a marked improvement in contractility or ejection fraction”.
